# According to patent publication US6593357B1, “Pyrazole compositions useful as inhibitors of ERK” (Vertex Pharmaceuticals Incorporated, priority 2000, dated 2003):
# Biological target: T1, Aurora2 (Homo sapiens, UniProt O14965)
# T1 sequence (O14965 1-403): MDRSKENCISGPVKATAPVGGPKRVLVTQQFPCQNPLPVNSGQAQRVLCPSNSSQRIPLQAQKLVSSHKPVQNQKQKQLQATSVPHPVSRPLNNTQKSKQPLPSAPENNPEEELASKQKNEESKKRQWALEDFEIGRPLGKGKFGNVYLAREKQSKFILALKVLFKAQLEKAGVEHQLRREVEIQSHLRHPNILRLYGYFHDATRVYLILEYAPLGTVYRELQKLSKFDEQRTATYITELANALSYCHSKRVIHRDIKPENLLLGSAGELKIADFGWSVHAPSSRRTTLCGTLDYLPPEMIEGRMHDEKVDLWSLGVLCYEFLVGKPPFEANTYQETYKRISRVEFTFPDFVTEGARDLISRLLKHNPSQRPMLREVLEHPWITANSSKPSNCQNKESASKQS
# Assay: Aurora inhibition, standard coupled enzyme assay
# Type: biochemical
# Settings: 40 μM ATP, 30° C.; read-out: Aurora2 Inhibitory Activity (IC50 class)
# Protocol: Compounds were screened in the following manner for their ability to inhibit Aurora using a standard coupled enzyme assay. To an assay stock buffer solution containing 0.1M HEPES 7.5, 10 mM MgCl2, 25 mM NaCl, 2.5 mM phosphoenolpyruvate, 300 μM NADH, 30 μg/mL pyruvate kinase, 10 μg/mL lactate dehydrogenase, 40 μM ATP, and 800 μM peptide (LRRASLG, American Peptide, Sunnyvale, Calif.) was added a 30 μM solution of the compound in DMSO and the resulting mixture incubated at 30° C. for 10 min. The reaction was initiated by the addition of 10 μL of 70 nM Aurora and 1 mM DTT. The rates of reaction were obtained by monitoring absorbance at 340 nm over a 5 minute read time at 30° C. using a BioRad Ultramark plate reader (Hercules, Calif.). The IC50 was determined from the rate data as a function of inhibitor concentration.
# The compound numbers correspond to the compound numbers in Table 1.
row,Compound,IC50
1,O=C(NCc1ccncc1)c1cc(-c2[nH]ncc2-c2ccc3c(c2)OCO3)c[nH]1 [II-213],5 to 10 µM
2,O=C(NCc1cccnc1)c1cc(-c2[nH]ncc2-c2cc(Cl)cc(Cl)c2)c[nH]1 [II-76],< 5 µM
3,O=C(NCC1CCCO1)c1cc(-c2[nH]ncc2-c2cccc(Cl)c2F)c[nH]1 (centres unmarked) [II-106],5 to 10 µM
4,CCN(C)C(=O)c1cc(-c2[nH]ncc2-c2ccc(OC)c(OC)c2)c[nH]1 [II-258],> 10 µM
5,O=C(NCCc1cnc[nH]1)c1cc(-c2[nH]ncc2-c2cccc(Cl)c2)c[nH]1 [II-142],< 5 µM
6,O=C(NOCc1ccccc1)c1cc(-c2[nH]ncc2-c2ccc(F)c(F)c2)c[nH]1 [II-85],5 to 10 µM
7,O=C(NCc1ccncc1)c1cc(-c2[nH]ncc2-c2ccc(F)c(F)c2)c[nH]1 [II-88],5 to 10 µM
8,O=C(NCc1cccnc1)c1cc(-c2[nH]ncc2-c2cc(F)ccc2F)c[nH]1 [II-181],5 to 10 µM
9,COc1ccc(-c2cn[nH]c2-c2c[nH]c(C(=O)NCc3ccncc3)c2)cc1OC [II-212],5 to 10 µM
10,O=C(NCc1ccncc1)c1cc(-c2[nH]ncc2-c2ccc(F)c(Cl)c2)c[nH]1 [II-70],5 to 10 µM
11,O=C(NOCc1ccccc1)c1cc(-c2[nH]ncc2-c2ccc(F)c(Cl)c2)c[nH]1 [II-77],< 5 µM
12,CCN(C)C(=O)c1cc(-c2[nH]ncc2-c2ccc(F)c(Cl)c2)c[nH]1 [II-108],5 to 10 µM
13,COc1ccc(-c2cn[nH]c2-c2c[nH]c(C(=O)NCC3CCCN(C(=O)OC(C)(C)C)C3)c2)cc1OC (centres unmarked) [II-259],5 to 10 µM
14,O=C(c1cc(-c2n[nH]cc2-c2cc(Cl)cc(Cl)c2)c[nH]1)N1CCOCC1 [II-112],< 5 µM
15,O=C(NCc1ccncc1)c1cc(-c2[nH]ncc2-c2ccc(Cl)c(Cl)c2)c[nH]1 [II-61],< 5 µM
16,O=C(NOCc1ccccc1)c1cc(-c2[nH]ncc2-c2cccc(Cl)c2)c[nH]1 [II-57],< 5 µM
17,O=C(NCc1ccncc1)c1cc(-c2[nH]ncc2-c2cccc(Cl)c2F)c[nH]1 [II-115],< 5 µM
18,O=C(NOCc1ccccc1)c1cc(-c2[nH]ncc2-c2cc(F)ccc2F)c[nH]1 [II-113],< 5 µM
19,O=C(NOCc1ccccc1)c1cc(-c2[nH]ncc2-c2cccc(Cl)c2F)c[nH]1 [II-82],< 5 µM
20,O=C(NCCc1cnc[nH]1)c1cc(-c2[nH]ncc2-c2ccc(Cl)cc2)c[nH]1 [II-252],5 to 10 µM
21,COc1ccc(-c2cn[nH]c2-c2c[nH]c(C(=O)NCc3cccnc3)c2)cc1OC [II-215],5 to 10 µM
22,O=C(NOCc1ccccc1)c1cc(-c2[nH]ncc2-c2cccc(F)c2F)c[nH]1 [II-103],5 to 10 µM
23,O=C(NOCc1ccccc1)c1cc(-c2[nH]ncc2-c2ccc(Cl)c(Cl)c2)c[nH]1 [II-54],5 to 10 µM

# Biological target: ERK2 (Homo sapiens, UniProt P28482)
# Assay: ERK2 inhibition, spectrophotometric coupled-enzyme assay
# Type: biochemical
# Settings: activated ERK2 10 nM, 65 μM ATP, 30° C., pH 7.5; read-out: ERK2 Inhibitory Activity (Ki class)
# ERK2, sequence (P28482 whole entry): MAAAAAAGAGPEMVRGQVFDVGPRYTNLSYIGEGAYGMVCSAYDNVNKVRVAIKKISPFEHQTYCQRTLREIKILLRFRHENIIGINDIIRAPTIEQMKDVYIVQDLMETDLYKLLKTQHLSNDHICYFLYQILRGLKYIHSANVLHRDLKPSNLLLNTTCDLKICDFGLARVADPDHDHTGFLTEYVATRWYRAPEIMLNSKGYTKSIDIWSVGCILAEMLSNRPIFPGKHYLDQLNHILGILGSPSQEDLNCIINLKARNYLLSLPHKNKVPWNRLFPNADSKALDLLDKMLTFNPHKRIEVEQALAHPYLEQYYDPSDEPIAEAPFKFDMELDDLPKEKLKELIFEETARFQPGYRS
row,Compound,Ki
1,O=C(NCc1cccnc1)c1cc(-c2[nH]ncc2-c2cc(Cl)cc(Cl)c2)c[nH]1 [II-76],< 1 µM
2,O=C(NCC1CCCO1)c1cc(-c2[nH]ncc2-c2cccc(Cl)c2F)c[nH]1 (centres unmarked) [II-106],< 1 µM
3,O=C(NCCc1cnc[nH]1)c1cc(-c2[nH]ncc2-c2cccc(Cl)c2)c[nH]1 [II-142],1 to 5 µM
4,O=C(NOCc1ccccc1)c1cc(-c2[nH]ncc2-c2ccc(F)c(F)c2)c[nH]1 [II-85],< 1 µM
5,O=C(NCc1ccncc1)c1cc(-c2[nH]ncc2-c2ccc(F)c(F)c2)c[nH]1 [II-88],< 1 µM
6,O=C(NCc1ccncc1)c1cc(-c2[nH]ncc2-c2ccc(F)c(Cl)c2)c[nH]1 [II-70],< 1 µM
7,O=C(NOCc1ccccc1)c1cc(-c2[nH]ncc2-c2ccc(F)c(Cl)c2)c[nH]1 [II-77],< 1 µM
8,CCN(C)C(=O)c1cc(-c2[nH]ncc2-c2ccc(F)c(Cl)c2)c[nH]1 [II-108],< 1 µM
9,O=C(c1cc(-c2n[nH]cc2-c2cc(Cl)cc(Cl)c2)c[nH]1)N1CCOCC1 [II-112],< 1 µM
10,O=C(NCc1ccncc1)c1cc(-c2[nH]ncc2-c2ccc(Cl)c(Cl)c2)c[nH]1 [II-61],< 1 µM
11,O=C(NCc1ccncc1)c1cc(-c2[nH]ncc2-c2cccc(Cl)c2F)c[nH]1 [II-115],< 1 µM
12,O=C(NOCc1ccccc1)c1cc(-c2[nH]ncc2-c2cc(F)ccc2F)c[nH]1 [II-113],< 1 µM
13,O=C(NOCc1ccccc1)c1cc(-c2[nH]ncc2-c2cccc(Cl)c2F)c[nH]1 [II-82],< 1 µM
14,O=C(NOCc1ccccc1)c1cc(-c2[nH]ncc2-c2cccc(F)c2F)c[nH]1 [II-103],< 1 µM
15,O=C(NOCc1ccccc1)c1cc(-c2[nH]ncc2-c2ccc(Cl)c(Cl)c2)c[nH]1 [II-54],< 1 µM
